In PMC8582824, “Targeting DDX3X Helicase Activity with BA103 Shows Promising Therapeutic Effects in Preclinical Glioblastoma Models” (Cancers, 2021):

How the values were obtained:
U251 cells = assay: MTS cytotoxicity assay, U251 cells; type: cell-based; details: 72 h
Experimental: For CellTiter 96® Aqueous One Solution Cell Proliferation Assay (MTS) (Promega, Madison, WI, USA), cells were seeded at 5 × 10^3 per well in 96-well plates in quadruplicate together a control with no cells to evaluate the background. After 24 h, the culture medium was removed, and fresh medium containing increasing concentrations of chemical compounds was added to cells. […] DMSO was the vehicle used for dilution of the compounds, and its final concentration on cells was less than 0.2%. Medium-only containing wells were included as controls. Cells were incubated with compounds at different concentrations for 72 h, then, 20 µL of CellTiter 96® AQueous One Solution Reagent was added into each well. After 3 h at 37 °C in a humidified, 5% CO2 atmosphere, the absorbance at 492 nm was recorded using an EZREAD400 (Biochrom, Cambridge, United Kingdom) plate reader. The average 490 nm absorbance from the “no cell” control wells was subtracted from all other values to yield background-corrected absorbance. Dose–response curves and CC50 values have been calculated by plotting the absorbance data as a function of inhibitor concentrations and fitting the data by least-squares nonlinear regression, according to the method of Marquardt–Levenberg, with the computer program GraphPad Prism 6.0.
Cells were incubated with a scalar concentration of DDX3X inhibitors, and after 72 h of treatment, cell viability was assessed by cytotoxicity assay. […] Compounds 4, 6, and BA103 were also evaluated against BJ primary fibroblasts; compound 4 has a cytotoxicity value of 84.7 μM; on the contrary, compounds 6 and BA103 were not toxic up to 200 μM concentration. This further excluded a possible nonspecific cytotoxic effect. […] Due to its interesting profile, compound BA103 was further tested against additional pulmonary (A549), breast (MDA-MB-231), colorectal (HCT-116), osteosarcoma (U2OS), rhabdomyosarcoma (RD18), GBM (DBTRG, U87, and U251) and medulloblastoma (DAOY) cancer cell lines.
Figure 5 Cytotoxicity of selected compounds. Compounds were assayed on DU-145, PC3, HepG2, Huh-7, HN6, U251, and U87 cell lines. The concentration of the compound, which reduced the number of viable cells by 50% (CC50), was determined by dose–response curve, and the mean CC50 value for each cell line was calculated by triplicate assays (raw data from U87 and U251 cells with dose–response curves used for the calculation of CC50 in Table S1 and Figure S2).
Table S1: Raw data of optical absorbance at 490 nm from MTS assay in U87 and U251 cells. Tables contain
means with SD of at least 5 different values that were used for preparation of figure 5.

DDX1 = biological target: T1, DDX1 (Homo sapiens, UniProt Q92499); assay: DDX1 helicase activity inhibition; type: biochemical; details: for IC50: helicase activity of DDX1, read-out: DDX1 IC50 ± SD
T1 sequence (Q92499 1-740): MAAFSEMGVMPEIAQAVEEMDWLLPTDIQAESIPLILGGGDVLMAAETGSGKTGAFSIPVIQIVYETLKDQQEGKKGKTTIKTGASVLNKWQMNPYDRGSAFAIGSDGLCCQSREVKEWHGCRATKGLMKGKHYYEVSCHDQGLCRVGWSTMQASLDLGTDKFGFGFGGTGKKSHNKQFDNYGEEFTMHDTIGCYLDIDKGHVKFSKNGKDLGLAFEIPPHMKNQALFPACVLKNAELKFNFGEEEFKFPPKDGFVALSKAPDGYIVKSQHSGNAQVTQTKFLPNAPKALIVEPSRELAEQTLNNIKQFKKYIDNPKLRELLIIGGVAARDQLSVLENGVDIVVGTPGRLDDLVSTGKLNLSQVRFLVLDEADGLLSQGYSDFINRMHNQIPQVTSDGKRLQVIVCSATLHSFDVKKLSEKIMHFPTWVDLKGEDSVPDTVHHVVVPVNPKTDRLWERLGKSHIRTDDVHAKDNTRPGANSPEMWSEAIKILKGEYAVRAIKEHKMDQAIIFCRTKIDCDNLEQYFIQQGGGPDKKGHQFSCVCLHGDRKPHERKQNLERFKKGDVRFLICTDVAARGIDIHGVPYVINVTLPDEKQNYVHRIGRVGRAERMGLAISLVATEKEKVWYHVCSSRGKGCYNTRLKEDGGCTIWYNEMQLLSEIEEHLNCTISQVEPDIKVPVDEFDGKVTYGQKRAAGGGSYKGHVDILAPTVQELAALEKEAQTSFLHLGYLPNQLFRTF
Description: To confirm the proposed mechanism of action and the selectivity of our compounds for the helicase binding site, we tested the capability of BA103 to inhibit the ATPase activity of DDX3X and the helicase activity of DDX1, which is another human member of the DEAD-box family.

[1] = Human liver microsomal metabolic stability; type: in vitro ADME; details: 37 °C, 60 min
Experimental: Preliminary in vitro ADME analysis was performed to early evaluate the pharmacokinetic (PK) profile of our compounds (Figure 8). Aqueous solubility was calculated by LC-MS-MS analysis. An aliquot of 1 mg of compound was stirred for 24 h at 27 °C in 1 mL of water. The mixture was filtered, and the quantity of solubilized compound was determined. Passive permeability was determined using parallel artificial membrane permeability assay (PAMPA). Microsomal metabolic stability was determined by LC-UV-MS analysis by incubating compounds with human liver microsomes at 37 °C for 60 min (for details, see the Supporting Information). […]
Microsomal Stability Assay.
Each compound in DMSO solution was incubated at 37 °C for 60 min in 125 mM phosphate buffer (pH 7.4), 5 μL of human liver microsomal protein (0.2 mg mL-1), in the presence of a NADPH-generating system at a final […]
reaction was stopped by cooling on ice and adding 1.0 mL of acetonitrile. The reaction mixtures were then centrifuged, and the parent drug and metabolites were subsequently determined by LC-UV-MS.
Chromatographic analysis was performed with an Agilent 1100 LC/MSD VL system (G1946C) (Agilent Technologies, Palo Alto, CA) constituted by a vacuum solvent degassing unit, a binary high-pressure gradient pump, an 1100 series UV detector, and an 1100 MSD model VL benchtop mass spectrometer.
Chromatographic separation was obtained using a Varian Polaris C18-A column (150-4.6 mm, 5 μm particle size) and gradient elution: eluent A being ACN and eluent B consisting of water. The analysis started with 2% […]
flow rate was 0.8 mL min-1 and injection volume was 20 μL.
The Agilent 1100 series mass spectra detection (MSD) single-quadrupole instrument was equipped with the orthogonal spray API-ES (Agilent Technologies, Palo Alto, CA). Nitrogen was used as nebulizing and drying gas. The pressure of the nebulizing gas, the flow of the drying gas, the capillary voltage, the fragmentor voltage, and the vaporization temperature were set at 40 psi, 9 L/min, 3000 V, 70 V, and 350 °C, respectively.
UV detection was monitored at 280 nm. The LC-ESI-MS determination was performed by operating the MSD in the positive ion mode. Spectra were acquired over the scan range m/z 100-1500 using a step size of 0.1 u.
The percentage of not metabolized compound was calculated by comparison with reference solutions

CCCCc1cn(-c2ccc(NC(=O)Nc3ccccc3C(F)(F)F)cc2)nn1 [BA103, 1-(4-(4-Butyl-1H-1,2,3-triazol-1-yl)phenyl)-3-(2-(trifluoromethyl)phenyl)urea]
mean absorbance at 490 nm (MTS) (U251 cells; U251, 0,01 uM): 2,166 | mean absorbance at 490 nm (MTS) (U251 cells; U251, 0,1 uM): 2,070 | mean absorbance at 490 nm (MTS) (U251 cells; U251, 1 uM): 1,364 | mean absorbance at 490 nm (MTS) (U251 cells; U251, 10 uM): 0,842 | mean absorbance at 490 nm (MTS) (U251 cells; U251, 100 uM): 0,604 | SI (Selectivity Index) (DDX1): >250 | IC50 (DDX1): > 100 µM | HLM Stability ± SD (Human Liver Microsomal Metabolic Stability) [1]: 97.0 ± 0.5%

CCCCc1cn(-c2ccc(NC(=O)Nc3ccccc3C)cc2)nn1 [Compound 1, reference compound]
mean absorbance at 490 nm (MTS) (U251 cells; U251, 0,01 uM): 2,020 | mean absorbance at 490 nm (MTS) (U251 cells; U251, 0,1 uM): 1,998 | mean absorbance at 490 nm (MTS) (U251 cells; U251, 1 uM): 1,459 | mean absorbance at 490 nm (MTS) (U251 cells; U251, 10 uM): 1,107 | mean absorbance at 490 nm (MTS) (U251 cells; U251, 100 uM): 0,474 | SI (Selectivity Index) (DDX1): >666 | IC50 (DDX1): > 200 µM | HLM Stability ± SD (Human Liver Microsomal Metabolic Stability) [1]: 99.0 ± 0.6%

CCCCc1nnc(-c2ccc(NC(=O)Nc3ccccc3C(F)(F)F)cc2)o1 [Compound 3, 1-(4-(5-Butyl-1,3,4-oxadiazol-2-yl)phenyl)-3-(2-(trifluoromethyl)phenyl)urea]
mean absorbance at 490 nm (MTS) (U251 cells; U251, 0,01 uM): 1,298 | mean absorbance at 490 nm (MTS) (U251 cells; U251, 0,1 uM): 1,025 | mean absorbance at 490 nm (MTS) (U251 cells; U251, 1 uM): 1,098 | mean absorbance at 490 nm (MTS) (U251 cells; U251, 10 uM): 0,593 | mean absorbance at 490 nm (MTS) (U251 cells; U251, 100 uM): 0,217 | HLM Stability ± SD (Human Liver Microsomal Metabolic Stability) [1]: 88.9 ± 0.9%

CCCCc1nnc(-c2ccc(NC(=O)Nc3ccccc3C(F)(F)F)cc2)[nH]1 [Compound 4, 1-(4-(5-Butyl-4H-1,2,4-triazol-3-yl)phenyl)-3-(2-(trifluoromethyl)phenyl)urea]
mean absorbance at 490 nm (MTS) (U251 cells; U251, 0,01 uM): 1,499 | mean absorbance at 490 nm (MTS) (U251 cells; U251, 0,1 uM): 1,513 | mean absorbance at 490 nm (MTS) (U251 cells; U251, 1 uM): 1,627 | mean absorbance at 490 nm (MTS) (U251 cells; U251, 10 uM): 1,482 | mean absorbance at 490 nm (MTS) (U251 cells; U251, 100 uM): 0,502 | SI (Selectivity Index) (DDX1): 418 | IC50 (DDX1): 29.3 ± 16.8 µM | HLM Stability ± SD (Human Liver Microsomal Metabolic Stability) [1]: 97.9 ± 0.3%

CCCCn1nnc(-c2ccc(NC(=O)Nc3ccccc3C(F)(F)F)cc2)n1 [Compound 6, 1-(4-(2-Butyl-2H-tetrazol-5-yl)phenyl)-3-(2-(trifluoromethyl)phenyl)urea]
mean absorbance at 490 nm (MTS) (U251 cells; U251, 0,01 uM): 1,431 | mean absorbance at 490 nm (MTS) (U251 cells; U251, 0,1 uM): 1,763 | mean absorbance at 490 nm (MTS) (U251 cells; U251, 1 uM): 2,172 | mean absorbance at 490 nm (MTS) (U251 cells; U251, 10 uM): 1,348 | mean absorbance at 490 nm (MTS) (U251 cells; U251, 100 uM): 0,361 | HLM Stability ± SD (Human Liver Microsomal Metabolic Stability) [1]: 90.32 ± 0.7%

CC(C)CCc1cn(-c2ccc(NC(=O)Nc3cccc4cnccc34)cn2)nn1 [Compound 10, 1-(6-(4-Isopentyl-1H-1,2,3-triazol-1-yl)pyridin-3-yl)-3-(isoquinolin-5-yl)urea]
mean absorbance at 490 nm (MTS) (U251 cells; U251, 0,01 uM): 1,904 | mean absorbance at 490 nm (MTS) (U251 cells; U251, 0,1 uM): 2,003 | mean absorbance at 490 nm (MTS) (U251 cells; U251, 1 uM): 1,581 | mean absorbance at 490 nm (MTS) (U251 cells; U251, 10 uM): 1,667 | mean absorbance at 490 nm (MTS) (U251 cells; U251, 100 uM): 0,809 | SI (Selectivity Index) (DDX1): >1000 | IC50 (DDX1): > 100 µM | HLM Stability ± SD (Human Liver Microsomal Metabolic Stability) [1]: 91.31 ± 0.1%
